# Laboratory results as given in US10189841B2, “Purinones as ubiquitin-specific protease 1 inhibitors” (Forma Therapeutics, Inc., priority 2015, dated 2019).
# Target: USP1 (construct USP1 (I-785, GG670, 671AA)/UAF1 (I-677)-Flag) (Homo sapiens (Human), UniProt O94782, G670A/G671A)
# Experiment: Ubiquitin-Rhodamine 110 assay for USP1 activity
# Format: biochemical
# Details: USP1/UAF1 25 pM, Ub-Rh110 25 nM, 30 min preincubation
# Method in brief: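 Two formats with the USP1/UAF1 complex and 25 nM ubiquitin-rhodamine 110 in pH 8.0 Tris buffer with calcium, glutathione and detergent. Single-point screening used 10 µM, 100 pM enzyme and 45 min. Inhibition was set against no-enzyme and DMSO wells.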
# USP1 (construct USP1 (I-785, GG670, 671AA)/UAF1 (I-677)-Flag), sequence (O94782 whole entry G670A/G671A): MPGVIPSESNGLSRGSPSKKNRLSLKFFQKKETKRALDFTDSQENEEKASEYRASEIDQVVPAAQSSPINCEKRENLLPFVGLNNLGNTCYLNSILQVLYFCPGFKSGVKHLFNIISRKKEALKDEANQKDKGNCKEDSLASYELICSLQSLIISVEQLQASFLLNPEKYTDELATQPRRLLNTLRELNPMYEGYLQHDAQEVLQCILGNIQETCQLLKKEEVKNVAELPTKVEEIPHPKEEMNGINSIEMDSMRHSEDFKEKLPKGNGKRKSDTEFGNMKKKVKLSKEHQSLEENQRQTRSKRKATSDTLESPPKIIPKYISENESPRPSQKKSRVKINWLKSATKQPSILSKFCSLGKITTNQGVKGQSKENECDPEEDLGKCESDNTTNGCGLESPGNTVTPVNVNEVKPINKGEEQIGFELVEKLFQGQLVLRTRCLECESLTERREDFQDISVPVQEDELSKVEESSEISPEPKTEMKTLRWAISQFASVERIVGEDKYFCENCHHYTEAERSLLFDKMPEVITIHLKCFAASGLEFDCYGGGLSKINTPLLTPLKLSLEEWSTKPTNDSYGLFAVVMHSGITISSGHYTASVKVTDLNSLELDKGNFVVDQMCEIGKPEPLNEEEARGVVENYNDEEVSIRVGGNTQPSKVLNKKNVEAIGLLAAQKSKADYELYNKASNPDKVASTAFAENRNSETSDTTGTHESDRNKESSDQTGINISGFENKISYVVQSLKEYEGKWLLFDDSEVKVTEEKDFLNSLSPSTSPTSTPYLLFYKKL
# USP1 (construct USP1 (I-785, GG670, 671AA)/UAF1 (I-677)-Flag), sequence (Q8TAF3 whole entry partner): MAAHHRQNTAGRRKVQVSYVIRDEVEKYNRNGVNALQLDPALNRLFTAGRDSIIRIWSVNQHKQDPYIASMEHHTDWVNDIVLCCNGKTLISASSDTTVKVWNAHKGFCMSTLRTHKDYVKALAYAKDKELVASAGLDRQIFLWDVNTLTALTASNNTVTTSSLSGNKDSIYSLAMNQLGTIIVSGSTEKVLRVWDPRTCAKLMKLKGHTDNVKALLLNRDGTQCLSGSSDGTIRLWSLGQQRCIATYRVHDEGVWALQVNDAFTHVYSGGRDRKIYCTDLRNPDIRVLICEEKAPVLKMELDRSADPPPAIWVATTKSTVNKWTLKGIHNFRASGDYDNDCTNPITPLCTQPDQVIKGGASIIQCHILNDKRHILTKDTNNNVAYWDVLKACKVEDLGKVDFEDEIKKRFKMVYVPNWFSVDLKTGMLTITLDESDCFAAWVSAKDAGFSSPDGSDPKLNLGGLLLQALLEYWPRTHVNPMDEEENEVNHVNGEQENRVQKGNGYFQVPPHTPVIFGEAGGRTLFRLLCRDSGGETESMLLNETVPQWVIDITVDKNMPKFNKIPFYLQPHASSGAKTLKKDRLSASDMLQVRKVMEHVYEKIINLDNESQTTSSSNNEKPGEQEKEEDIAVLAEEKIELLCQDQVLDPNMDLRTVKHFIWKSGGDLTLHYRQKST
row,SMILES,IC50 [nM]
1,"CC(C)c1ccccc1-c1ncc2[nH]c(=O)n(Cc3ccc(-c4ncn(C)n4)cc3)c2n1 [Compound I-274, 2-(2-isopropylphenyl)-9-(4-(1-methyl-1H-1,2,4-triazol-3-yl)benzyl)-7,9-dihydro-8H-purin-8-one]",50 to 200
2,"CC(C)c1ccccc1-c1ncc2[nH]c(=O)n(Cc3ccc(-c4cn(C(C)C)cn4)cc3)c2n1 [Compound I-275, 9-(4-(1-isopropyl-1H-imidazol-4-yl)benzyl)-2-(2-isopropylphenyl)-7,9-dihydro-8H-purin-8-one]",< 50
3,"Cc1nc(-c2ccc(Cn3c(=O)n(C)c4cnc(-c5ccccc5C(C)C)nc43)cc2)cn1C [Compound I-276, 9-(4-(1,2-dimethyl-1H-imidazol-4-yl)benzyl)-2-(2-isopropylphenyl)-7-methyl-7,9-dihydro-8H-purin-8-one]",< 50
4,"CC(C)c1ccccc1-c1ncc2c(n1)n(Cc1ccc(-c3cn(C(C)C)cn3)cc1)c(=O)n2C [Compound I-277, 9-(4-(1-isopropyl-1H-imidazol-4-yl)benzyl)-2-(2-isopropylphenyl)-7-methyl-7,9-dihydro-8H-purin-8-one]",< 50
5,"CC(C)c1ccccc1-c1ncc2c(n1)n(Cc1ccc(-c3nc(C(N)=O)n(C)n3)cc1)c(=O)n2C [Compound I-278, 3-(4-((2-(2-isopropylphenyl)-7-methyl-8-oxo-7,8-dihydro-9H-purin-9-yl)methyl)phenyl)-1-methyl-1H-1,2,4-triazole-5-carboxamide]",50 to 200
6,"Cc1nc(-c2ccc(Cn3c(=O)n(C)c4cnc(-c5ccccc5C(C)C)nc43)cc2)nn1C [Compound I-279, 9-(4-(1,5-dimethyl-1H-1,2,4-triazol-3-yl)benzyl)-2-(2-isopropylphenyl)-7-methyl-7,9-dihydro-8H-purin-8-one]",< 50
7,"CC(C)c1ccccc1-c1ncc2c(n1)n(Cc1ccc(-c3nc(C(F)(F)F)n(C)n3)cc1)c(=O)n2C [Compound I-280, 2-(2-isopropylphenyl)-7-methyl-9-(4-(1-methyl-5-(trifluoromethyl)-1H-1,2,4-triazol-3-yl)benzyl)-7,9-dihydro-8H-purin-8-one]",< 50
8,"COc1nc(-c2ccc(Cn3c(=O)n(C)c4cnc(-c5ccccc5C(C)C)nc43)cc2)nn1C [Compound I-281, 2-(2-isopropylphenyl)-9-(4-(5-methoxy-1-methyl-1H-1,2,4-triazol-3-yl)benzyl)-7-methyl-7,9-dihydro-8H-purin-8-one]",< 50
9,"CC(C)c1ccccc1-c1ncc2c(n1)n(Cc1ccc(-c3nc(N4CCOCC4)n(C)n3)cc1)c(=O)n2C [Compound I-282, 2-(2-isopropylphenyl)-7-methyl-9-(4-(1-methyl-5-morpholino-1H-1,2,4-triazol-3-yl)benzyl)-7,9-dihydro-8H-purin-8-one]",50 to 200
10,"Cc1nc(-c2ccc(Cn3c(=O)n(C)c4cnc(-c5ccccc5C(C)C)nc43)cc2)n(C)n1 [Compound I-283, 9-(4-(1,3-dimethyl-1H-1,2,4-triazol-5-yl)benzyl)-2-(2-isopropylphenyl)-7-methyl-7,9-dihydro-8H-purin-8-one]",< 50
11,"CC(C)c1ccccc1-c1ncc2c(n1)n(Cc1ccc(-c3ccnn3C(C)C)cc1)c(=O)n2C [Compound I-284, 9-(4-(1-isopropyl-1H-pyrazol-5-yl)benzyl)-2-(2-isopropylphenyl)-7-methyl-7,9-dihydro-8H-purin-8-one]",200 to 2000
12,"CC(C)c1ccccc1-c1ncc2c(n1)n(Cc1ccc(-c3cnnn3C)cc1)c(=O)n2C [Compound I-285, 2-(2-isopropylphenyl)-7-methyl-9-(4-(1-methyl-1H-1,2,3-triazol-5-yl)benzyl)-7,9-dihydro-8H-purin-8-one]",200 to 2000
13,"CC(C)c1ccccc1-c1ncc2c(n1)n(Cc1ccc(-c3nnc4ccccn34)cc1)c(=O)n2C [Compound I-286, 9-(4-([1,2,4]triazolo[4,3-a]pyridin-3-yl)benzyl)-2-(2-isopropylphenyl)-7-methyl-7,9-dihydro-8H-purin-8-one]",< 50
14,"CC(C)c1ccccc1-c1ncc2c(n1)n(Cc1ccc(-c3cn(C)nn3)cc1)c(=O)n2C [Compound I-287, 2-(2-isopropylphenyl)-7-methyl-9-(4-(1-methyl-1H-1,2,3-triazol-4-yl)benzyl)-7,9-dihydro-8H-purin-8-one]",< 50
15,"CC(C)c1ccccc1-c1ncc2c(n1)n(Cc1ccc(-c3ncn(C)c3CO)cc1)c(=O)n2C [Compound I-288, 9-(4-(5-(hydroxymethyl)-1-methyl-1H-imidazol-4-yl)benzyl)-2-(2-isopropylphenyl)-7-methyl-7,9-dihydro-8H-purin-8-one]",200 to 2000
16,"CC(C)c1ccccc1-c1ncc2c(n1)n(Cc1ccc(-c3nccn4ccnc34)cc1)c(=O)n2C [Compound I-289, 9-(4-(imidazo[1,2-a]pyrazin-8-yl)benzyl)-2-(2-isopropylphenyl)-7-methyl-7,9-dihydro-8H-purin-8-one]",< 50
17,"Cc1coc(-c2ccc(Cn3c(=O)n(C)c4cnc(-c5ccccc5C(C)C)nc43)cc2)n1 [Compound I-290, 2-(2-isopropylphenyl)-7-methyl-9-(4-(4-methyloxazol-2-yl)benzyl)-7,9-dihydro-8H-purin-8-one]",< 50

row,SMILES,IC50 [nM]
1,"CC(C)c1ccccc1-c1ncc2[nH]c(=O)n(Cc3ccc(-c4nccn5ccnc45)cc3)c2n1 [Compound I-291, 9-(4-(imidazo[1,2-a]pyrazin-8-yl)benzyl)-2-(2-isopropylphenyl)-7,9-dihydro-8H-purin-8-one]",< 50
2,"CC(C)c1ccccc1-c1ncc2[nH]c(=O)n(Cc3ccc(-c4nc(N5CCOCC5)n(C)n4)cc3)c2n1 [Compound I-292, 2-(2-isopropylphenyl)-9-(4-(1-methyl-5-morpholino-1H-1,2,4-triazol-3-yl)benzyl)-7,9-dihydro-8H-purin-8-one]",50 to 200
3,"CC(C)c1ccccc1-c1ncc2[nH]c(=O)n(Cc3ccc(-c4nc(C(F)(F)F)n(C)n4)cc3)c2n1 [Compound I-293, 2-(2-isopropylphenyl)-9-(4-(1-methyl-5-(trifluoromethyl)-1H-1,2,4-triazol-3-yl)benzyl)-7,9-dihydro-8H-purin-8-one]",< 50
4,"Cc1nc(-c2ccc(Cn3c(=O)[nH]c4cnc(-c5ccccc5C(C)C)nc43)cc2)nn1C [Compound I-294, 9-(4-(1,5-dimethyl-1H-1,2,4-triazol-3-yl)benzyl)-2-(2-isopropylphenyl)-7,9-dihydro-8H-purin-8-one]",< 50
5,"COc1nc(-c2ccc(Cn3c(=O)[nH]c4cnc(-c5ccccc5C(C)C)nc43)cc2)nn1C [Compound I-295, 2-(2-isopropylphenyl)-9-(4-(5-methoxy-1-methyl-1H-1,2,4-triazol-3-yl)benzyl)-7,9-dihydro-8H-purin-8-one]",< 50
6,"Cc1nc(-c2ccc(Cn3c(=O)[nH]c4cnc(-c5ccccc5C(C)C)nc43)cc2)n(C)n1 [Compound I-296, 9-(4-(1,3-dimethyl-1H-1,2,4-triazol-5-yl)benzyl)-2-(2-isopropylphenyl)-7,9-dihydro-8H-purin-8-one]",< 50
7,"CC(C)c1ccccc1-c1ncc2[nH]c(=O)n(Cc3ccc(-c4ncn(C)c4CO)cc3)c2n1 [Compound I-297, 9-(4-(5-(hydroxymethyl)-1-methyl-1H-imidazol-4-yl)benzyl)-2-(2-isopropylphenyl)-7,9-dihydro-8H-purin-8-one]",200 to 2000
8,"CC(C)c1ccccc1-c1ncc2[nH]c(=O)n(Cc3ccc(-c4cnnn4C)cc3)c2n1 [Compound I-298, 2-(2-isopropylphenyl)-9-(4-(1-methyl-1H-1,2,3-triazol-5-yl)benzyl)-7,9-dihydro-8H-purin-8-one]",> 2000
9,"CC(C)c1ccccc1-c1ncc2[nH]c(=O)n(Cc3ccc(-c4ccnn4C(C)C)cc3)c2n1 [Compound I-299, 9-(4-(1-isopropyl-1H-pyrazol-5-yl)benzyl)-2-(2-isopropylphenyl)-7,9-dihydro-8H-purin-8-one]",50 to 200
10,"Cc1scnc1-c1ccc(Cn2c(=O)[nH]c3cnc(-c4ccccc4C(C)C)nc32)cc1 [Compound I-300, 2-(2-isopropylphenyl)-9-(4-(5-methylthiazol-4-yl)benzyl)-7,9-dihydro-8H-purin-8-one]",< 50
11,"Cc1nc(-c2ccc(Cn3c(=O)[nH]c4cnc(-c5ccccc5C(C)C)nc43)cc2)c(C)s1 [Compound I-301, 9-(4-(2,5-dimethylthiazol-4-yl)benzyl)-2-(2-isopropylphenyl)-7,9-dihydro-8H-purin-8-one]",< 50
12,"CC(C)c1ccccc1-c1ncc2[nH]c(=O)n(Cc3ccc(-c4ncsc4CO)cc3)c2n1 [Compound I-302, 9-(4-(5-(hydroxymethyl)thiazol-4-yl)benzyl)-2-(2-isopropylphenyl)-7,9-dihydro-8H-purin-8-one]",< 50
13,"Cc1scnc1-c1ccc(Cn2c(=O)n(C)c3cnc(-c4ccccc4C(C)C)nc32)cc1 [Compound I-303, 2-(2-isopropylphenyl)-7-methyl-9-(4-(5-methylthiazol-4-yl)benzyl)-7,9-dihydro-8H-purin-8-one]",< 50
14,"Cc1nc(-c2ccc(Cn3c(=O)n(C)c4cnc(-c5ccccc5C(C)C)nc43)cc2)c(C)s1 [Compound I-304, 9-(4-(2,5-dimethylthiazol-4-yl)benzyl)-2-(2-isopropylphenyl)-7-methyl-7,9-dihydro-8H-purin-8-one]",< 50
15,"CC(C)c1ccccc1-c1ncc2c(n1)n(Cc1ccc(-c3ncsc3CO)cc1)c(=O)n2C [Compound I-305, 9-(4-(5-(hydroxymethyl)thiazol-4-yl)benzyl)-2-(2-isopropylphenyl)-7-methyl-7,9-dihydro-8H-purin-8-one]",< 50
16,"Cc1cn2ccnc2c(-c2ccc(Cn3c(=O)[nH]c4cnc(-c5ccccc5C(C)C)nc43)cc2)n1 [Compound I-306, 2-(2-isopropylphenyl)-9-(4-(6-methylimidazo[1,2-a]pyrazin-8-yl)benzyl)-7,9-dihydro-8H-purin-8-one]",< 50
